Test results from patent publication US20240150360A1 (THE REGENTS OF THE UNIVERSITY OF MICHIGAN, priority 2021, published 2024).
pIC50: −log10 of the molar value.

Tests used:
HL60 = assay: Cell growth inhibition in HL60; format: cell-based; conditions: Homo sapiens, HL-60, HL60 cells; read-out: Cell Growth Inhibition (IC50) HL60
P300 = target: T1, P300 (Homo sapiens, UniProt Q09472); assay: P300 degradation in 22Rv1 cells (5 h); format: cell-based; conditions: 22Rv1 cells, 5 h; for Dmax: read-out: P300 Degradation (22Rv1, 5 h) DCmax
T1 construct: endogenous in cells; host or cells: 22Rv1 (ATCC CRL-2505) human prostate cancer cells
T1 sequence (Q09472 whole entry): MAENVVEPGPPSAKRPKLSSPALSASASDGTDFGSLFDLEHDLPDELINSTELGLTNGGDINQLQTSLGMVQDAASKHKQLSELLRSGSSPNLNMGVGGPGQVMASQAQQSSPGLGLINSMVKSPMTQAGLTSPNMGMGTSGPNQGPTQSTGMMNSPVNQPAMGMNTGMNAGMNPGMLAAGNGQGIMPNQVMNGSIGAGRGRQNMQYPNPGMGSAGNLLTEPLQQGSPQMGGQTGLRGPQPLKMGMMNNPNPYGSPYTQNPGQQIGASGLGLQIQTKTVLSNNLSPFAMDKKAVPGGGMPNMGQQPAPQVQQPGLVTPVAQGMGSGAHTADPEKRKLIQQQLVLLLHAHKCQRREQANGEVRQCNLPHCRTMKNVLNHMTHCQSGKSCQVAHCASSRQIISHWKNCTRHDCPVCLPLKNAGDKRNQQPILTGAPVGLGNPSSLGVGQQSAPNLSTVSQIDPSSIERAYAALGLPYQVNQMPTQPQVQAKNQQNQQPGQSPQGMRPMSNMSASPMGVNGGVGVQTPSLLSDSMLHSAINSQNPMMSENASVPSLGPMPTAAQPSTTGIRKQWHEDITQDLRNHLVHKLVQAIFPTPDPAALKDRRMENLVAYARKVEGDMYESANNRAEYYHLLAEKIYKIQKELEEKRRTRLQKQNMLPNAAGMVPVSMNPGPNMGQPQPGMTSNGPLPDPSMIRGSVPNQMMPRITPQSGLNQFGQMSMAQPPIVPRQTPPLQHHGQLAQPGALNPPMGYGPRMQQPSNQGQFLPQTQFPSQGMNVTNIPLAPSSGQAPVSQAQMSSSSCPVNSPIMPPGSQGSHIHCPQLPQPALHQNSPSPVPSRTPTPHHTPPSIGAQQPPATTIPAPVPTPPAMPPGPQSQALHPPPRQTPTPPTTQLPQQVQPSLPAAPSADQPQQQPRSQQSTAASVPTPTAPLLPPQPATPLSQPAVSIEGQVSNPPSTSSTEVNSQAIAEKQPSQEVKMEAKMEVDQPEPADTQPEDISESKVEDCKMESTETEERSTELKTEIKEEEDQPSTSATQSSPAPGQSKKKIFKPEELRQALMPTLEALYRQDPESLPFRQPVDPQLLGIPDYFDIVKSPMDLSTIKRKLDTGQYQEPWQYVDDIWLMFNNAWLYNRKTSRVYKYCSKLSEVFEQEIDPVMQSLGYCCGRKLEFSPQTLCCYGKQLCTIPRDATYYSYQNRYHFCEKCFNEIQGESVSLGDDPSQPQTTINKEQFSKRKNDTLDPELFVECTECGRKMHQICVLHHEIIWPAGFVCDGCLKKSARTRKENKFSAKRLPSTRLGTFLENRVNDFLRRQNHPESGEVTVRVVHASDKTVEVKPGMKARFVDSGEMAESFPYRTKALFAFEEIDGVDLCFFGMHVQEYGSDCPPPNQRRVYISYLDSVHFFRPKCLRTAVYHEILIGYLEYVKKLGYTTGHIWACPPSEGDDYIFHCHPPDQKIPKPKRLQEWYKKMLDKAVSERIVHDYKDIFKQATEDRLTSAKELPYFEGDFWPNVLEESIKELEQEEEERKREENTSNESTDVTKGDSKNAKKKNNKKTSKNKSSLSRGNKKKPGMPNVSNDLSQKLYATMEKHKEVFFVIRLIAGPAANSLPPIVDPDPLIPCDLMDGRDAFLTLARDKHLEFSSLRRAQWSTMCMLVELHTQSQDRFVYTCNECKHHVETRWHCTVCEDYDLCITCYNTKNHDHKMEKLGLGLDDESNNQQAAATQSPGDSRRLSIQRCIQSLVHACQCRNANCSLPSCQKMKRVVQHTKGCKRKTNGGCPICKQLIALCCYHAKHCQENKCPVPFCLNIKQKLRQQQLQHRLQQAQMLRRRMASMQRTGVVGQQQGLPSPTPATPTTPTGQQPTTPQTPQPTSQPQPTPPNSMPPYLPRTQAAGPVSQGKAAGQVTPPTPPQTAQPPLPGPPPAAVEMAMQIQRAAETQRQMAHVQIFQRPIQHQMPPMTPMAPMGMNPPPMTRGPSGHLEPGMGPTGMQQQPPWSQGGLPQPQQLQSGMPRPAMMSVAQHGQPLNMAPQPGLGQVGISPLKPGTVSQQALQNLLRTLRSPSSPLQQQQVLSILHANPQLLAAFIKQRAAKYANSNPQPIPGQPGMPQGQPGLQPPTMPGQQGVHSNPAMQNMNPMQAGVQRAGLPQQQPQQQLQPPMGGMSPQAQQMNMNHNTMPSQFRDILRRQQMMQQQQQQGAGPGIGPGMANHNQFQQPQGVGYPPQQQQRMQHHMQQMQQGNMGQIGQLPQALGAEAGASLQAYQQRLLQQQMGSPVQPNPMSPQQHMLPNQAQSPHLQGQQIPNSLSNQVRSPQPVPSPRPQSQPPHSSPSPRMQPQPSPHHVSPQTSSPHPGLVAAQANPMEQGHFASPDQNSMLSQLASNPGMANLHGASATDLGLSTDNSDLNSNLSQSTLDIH
Description: (§1) Biological Assays. […] Cells with 3-8 passages after purchase were used in experiments.

CBP = target: T2, CBP (Homo sapiens, UniProt Q92793); assay: CBP degradation in 22Rv1 cells (5 h); format: cell-based; conditions: 22Rv1 cells, 5 h; for Dmax: 22Rv1, 5 h, read-out: CBP Degradation (22Rv1, 5 h) DCmax
T2 construct: endogenous in cells; host or cells: 22Rv1 (ATCC CRL-2505) human prostate cancer cells
T2 sequence (Q92793 whole entry): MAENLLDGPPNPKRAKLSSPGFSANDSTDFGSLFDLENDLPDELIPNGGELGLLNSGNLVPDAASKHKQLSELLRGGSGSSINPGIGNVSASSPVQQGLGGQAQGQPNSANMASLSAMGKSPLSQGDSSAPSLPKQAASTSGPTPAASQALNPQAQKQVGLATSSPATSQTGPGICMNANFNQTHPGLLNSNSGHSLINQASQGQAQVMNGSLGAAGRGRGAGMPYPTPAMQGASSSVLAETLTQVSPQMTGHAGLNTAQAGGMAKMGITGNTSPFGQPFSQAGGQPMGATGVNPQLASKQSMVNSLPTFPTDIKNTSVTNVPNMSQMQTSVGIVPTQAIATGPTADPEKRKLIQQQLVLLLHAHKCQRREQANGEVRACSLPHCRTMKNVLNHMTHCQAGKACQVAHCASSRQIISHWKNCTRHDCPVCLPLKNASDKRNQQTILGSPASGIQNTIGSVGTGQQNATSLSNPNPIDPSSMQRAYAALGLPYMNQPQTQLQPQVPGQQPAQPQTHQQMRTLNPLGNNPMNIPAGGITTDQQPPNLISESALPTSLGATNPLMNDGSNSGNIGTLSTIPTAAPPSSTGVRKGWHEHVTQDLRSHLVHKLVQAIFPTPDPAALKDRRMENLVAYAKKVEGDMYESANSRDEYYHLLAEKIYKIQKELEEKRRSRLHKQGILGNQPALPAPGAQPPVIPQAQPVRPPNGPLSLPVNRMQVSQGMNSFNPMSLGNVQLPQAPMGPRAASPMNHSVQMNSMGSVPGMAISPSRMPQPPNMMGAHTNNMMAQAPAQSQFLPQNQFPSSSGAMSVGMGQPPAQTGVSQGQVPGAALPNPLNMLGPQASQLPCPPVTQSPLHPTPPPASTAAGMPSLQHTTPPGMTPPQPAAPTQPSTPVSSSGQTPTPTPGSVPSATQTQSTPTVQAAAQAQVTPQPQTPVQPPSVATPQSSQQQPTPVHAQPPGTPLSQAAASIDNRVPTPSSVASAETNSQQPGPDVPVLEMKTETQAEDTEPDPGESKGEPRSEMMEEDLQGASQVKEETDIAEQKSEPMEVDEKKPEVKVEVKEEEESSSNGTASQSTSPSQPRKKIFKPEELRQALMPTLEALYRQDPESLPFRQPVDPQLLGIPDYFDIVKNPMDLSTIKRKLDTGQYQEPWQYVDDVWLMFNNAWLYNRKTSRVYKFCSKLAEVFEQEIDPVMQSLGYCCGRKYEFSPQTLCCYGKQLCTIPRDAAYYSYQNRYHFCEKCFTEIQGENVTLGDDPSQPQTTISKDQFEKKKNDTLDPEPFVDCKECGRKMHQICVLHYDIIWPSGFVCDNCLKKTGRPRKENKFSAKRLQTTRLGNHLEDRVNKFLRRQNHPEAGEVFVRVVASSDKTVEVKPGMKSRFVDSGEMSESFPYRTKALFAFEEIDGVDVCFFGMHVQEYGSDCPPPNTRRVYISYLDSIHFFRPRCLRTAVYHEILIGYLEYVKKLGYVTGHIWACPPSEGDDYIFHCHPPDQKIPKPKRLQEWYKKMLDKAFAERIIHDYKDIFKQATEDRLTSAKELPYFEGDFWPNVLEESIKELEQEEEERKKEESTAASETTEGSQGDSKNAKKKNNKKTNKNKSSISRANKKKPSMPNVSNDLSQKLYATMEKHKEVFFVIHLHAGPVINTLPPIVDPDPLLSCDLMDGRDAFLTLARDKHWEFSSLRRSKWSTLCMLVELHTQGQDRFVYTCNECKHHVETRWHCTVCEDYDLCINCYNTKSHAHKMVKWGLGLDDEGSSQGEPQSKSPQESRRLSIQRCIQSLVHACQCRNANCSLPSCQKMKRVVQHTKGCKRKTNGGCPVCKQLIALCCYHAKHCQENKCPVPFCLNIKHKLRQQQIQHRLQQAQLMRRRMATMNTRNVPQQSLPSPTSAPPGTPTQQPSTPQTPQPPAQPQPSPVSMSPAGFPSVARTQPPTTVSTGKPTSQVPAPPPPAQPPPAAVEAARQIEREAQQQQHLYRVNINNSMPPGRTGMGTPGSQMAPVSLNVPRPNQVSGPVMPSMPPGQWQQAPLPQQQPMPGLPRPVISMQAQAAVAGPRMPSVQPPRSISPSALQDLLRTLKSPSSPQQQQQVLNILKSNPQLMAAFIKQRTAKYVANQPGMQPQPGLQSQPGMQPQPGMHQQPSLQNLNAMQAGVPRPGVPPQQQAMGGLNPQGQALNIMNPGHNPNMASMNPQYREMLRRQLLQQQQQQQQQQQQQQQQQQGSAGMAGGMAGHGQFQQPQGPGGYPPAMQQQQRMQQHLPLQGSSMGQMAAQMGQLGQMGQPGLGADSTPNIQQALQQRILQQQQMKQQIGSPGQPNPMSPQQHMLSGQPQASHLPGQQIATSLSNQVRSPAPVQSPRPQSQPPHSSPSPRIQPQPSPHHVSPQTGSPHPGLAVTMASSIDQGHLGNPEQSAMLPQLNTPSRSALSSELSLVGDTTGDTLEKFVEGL
Description: as §1

22Rv1 cells = assay: Cell growth inhibition assay (CellTiter-Glo) in 22Rv1; format: cell-based, human; conditions: Homo sapiens, 22Rv1, 96 h, 22Rv1 cells, 96 h incubation; read-out: Cell Growth Inhibition (IC50) 22Rv1
Outline: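 22Rv1 prostate cancer cells (passages 3-8, DMEM with 10% FBS) were seeded at 4000 cells/well with compound, 3-fold dilutions from 10 μM final. After 96 h at 37° C and 5% CO2, growth was read by CellTiter-Glo 2.0 luminescence.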

| pIC50 (HL60) | DC50 (P300) | Dmax (P300) | Dmax (CBP) | DC50 (CBP) | pIC50 (22Rv1 cells) | Structure (SMILES) |
| --- | --- | --- | --- | --- | --- | --- |
| > 7.00 | < 10 nM | > 90% | > 90% | < 10 nM | > 7.00 | CC(=O)N1CCc2c(c(N3CCCc4cc(-c5cnn(C)c5)c(C(F)F)cc43)nn2[C@H]2CC[C@H](CN3Cc4cc5c(cc4C3)C(=O)N(C3CCC(=O)NC3=O)C5)CC2)C1 (stereo partly drawn) [CP-048, 3-(6-(((1r,4r)-4-(5-acetyl-3-(7-(difluoromethyl)-6-(1-methyl-1H-pyrazol-4-yl)-3,4-dihydroquinolin-1(2H)-yl)-4,5,6,7-tetrahydro-1H-pyrazolo[4,3-c]pyridin-1-yl)cyclohexyl)methyl)-1-oxo-3,5,6,7-tetrahydropyrrolo[3,4-f]isoindol-2(1H)-yl)piperidine-2,6-dione] |
| > 6.00 | < 10 nM | > 70% | > 90% | < 10 nM | > 6.00 | CC(=O)N1CCc2c(c(N3CCCc4cc(C5CC5)c(C(F)F)cc43)nn2C2CCN(C(=O)CN3CCc4cc5c(cc4C3)C(=O)N(C3CCC(=O)NC3=O)C5=O)CC2)C1 (stereo not drawn) [CP-014, 6-(2-(4-(5-acetyl-3-(6-cyclopropyl-7-(difluoromethyl)-3,4-dihydroquinolin-1(2H)-yl)-4,5,6,7-tetrahydro-1H-pyrazolo[4,3-c]pyridin-1-yl)piperidin-1-yl)-2-oxoethyl)-2-(2,6-dioxopiperidin-3-yl)-5,6,7,8-tetrahydro-1H-pyrrolo[3,4-g]isoquinoline-1,3(2H)-dione] |
| > 7.00 | < 10 nM | > 70% | > 90% | < 10 nM | > 6.00 | CC(=O)N1CCc2c(c(N3CCCc4cc(C(C)C)c(C(F)F)cc43)nn2C2CCN(C(=O)CN3Cc4cc5c(cc4C3)C(=O)N(C3CCC(=O)NC3=O)C5=O)CC2)C1 (stereo not drawn) [CP-015, 6-(2-(4-(5-acetyl-3-(7-(difluoromethyl)-6-isopropyl-3,4-dihydroquinolin-1(2H)-yl)-4,5,6,7-tetrahydro-1H-pyrazolo[4,3-c]pyridin-1-yl)piperidin-1-yl)-2-oxoethyl)-2-(2,6-dioxopiperidin-3-yl)-6,7-dihydropyrrolo[3,4-f]isoindole-1,3(2H,5H)-dione] |
| < 5.00 | > 1000 nM | < 50% | > 70% | < 10 nM | < 5.00 | CC(=O)N1Cc2c(N3CCCc4cc(-c5ccnn5C)c(C(F)F)cc43)nn(C3CCN(C(=O)CN4Cc5cc6c(cc5C4)C(=O)N(C4CCC(=O)NC4=O)C6=O)CC3)c2C(C)(C)C1 (stereo not drawn) [CP-085, 6-(2-(4-(5-acetyl-3-(7-(difluoromethyl)-6-(1-methyl-1H-pyrazol-5-yl)-3,4-dihydroquinolin-1(2H)-yl)-7,7-dimethyl-4,5,6,7-tetrahydro-1H-pyrazolo[4,3-c]pyridin-1-yl)piperidin-1-yl)-2-oxoethyl)-2-(2,6-dioxopiperidin-3-yl)-6,7-dihydropyrrolo[3,4-f]isoindole-1,3(2H,5H)-dione] |
| < 5.00 | > 1000 nM | < 50% | > 50% | < 100 nM | < 5.00 | Cc1noc(C)c1-c1ccc2c(c1)nc([C@@H]1CCCC(=O)N1c1ccc(F)c(F)c1)n2C1CCN(C(=O)CN2Cc3cc4c(cc3C2)C(=O)N(C2CCC(=O)NC2=O)C4=O)CC1 (stereo partly drawn) [CP-061, 6-(2-(4-(2-((S)-1-(3,4-difluroophenyl)-6-oxopiperidin-2-yl)-5-(3,5-dimethylisoxazol-4-yl)-1H-benzo[d]imidazol-1-yl)piperidin-1-yl)-2-oxoethyl)-2-(2,6-dioxopiperidin-3-yl)-6,7-dihydropyrrolo[3,4-f]isoindole-1,3(2H,5H)-dione] |
